Patent US20220213144A1, “HALOGENATED ANTIMICROBIAL PEPTOIDS” (priority 2019, published 2022)
Square brackets hold non-standard residues; d marks the D form. Peptide text beside a SMILES is read from it. Gly(Nα-4-Cl-benzyl) = O=C(O)CNCc1ccc(Cl)cc1; N(4-F-Bzl)Gly = O=C(O)CNCc1ccc(F)cc1; NBzl(4-I)Gly = O=C(O)CNCc1ccc(I)cc1; Nphe = O=C(O)CNCc1ccccc1; Nlys = NCCCCNCC(=O)O

Assay: Small angle X-ray scattering, critical aggregation concentration from fit
Type: physicochemical
Conditions: for critical aggregation concentration (CAC): SAXS fit analysis, bundle model
Experimental: SAXS experiments of the 10-mer peptoids were performed on the automated BM29 bioSAXS beamline at the European Synchrotron Radiation Facility (ESRF) in Grenoble, France. The data was obtained using an energy of 12.5 keV and a detector distance of 2.87 m, covering a q range (q=4π sin(θ/2)/λ), where θ is the scattering angle and λ is the X-ray wavelength) of about 0.0047 Å-1 to 0.5 Å-1. The data set was calibrated to an absolute intensity scale using water as a primary standard. Samples (40 μL) were run through a capillary using the flow mode of the automated sample changer. SAXS data was collected in ten successive frames of 0.5 s each to monitor radiation damage, and the data reduction was done using the standard tool at BM29.
The SAXS experiments on the fully iodinated 6-, 8-, and 12-mers to determine the CAC of the compounds were performed using a Bruker NANOSTAR equipped with a microfocus X-ray source (IμS Cu, Incoatec, Germany) and a VANTEC-2000 detector. Raw scattering data was calibrated to absolute intensity scale using water as a primary standard and radially averaged in order to obtain the 1D scattered intensity profile as a function of the scattering vector, with a wavelength of 1.54 Å.
where fagg is the fraction of peptoid chains aggregated in bundles, allowing for calculation of a CAC from ϕCAC=ϕ−(fagg*ϕ).

[1] = Table 2, 10-mers, SAXS at ESRF, model fit
[2] = Table 3, fully iodinated peptoids, bundle model fit

SMILES	critical aggregation concentration (CAC) [mg/mL]	CAC [1] [mg/mL]	CAC [2] [mg/mL]
NCCCCNCC(=O)N(CC(=O)N(CCCCN)CC(=O)N(CC(=O)N(CCCCN)CC(=O)N(CC(=O)N(CCCCN)CC(=O)N(CC(=O)N(CCCCN)CC(=O)N(CC(N)=O)Cc1ccc(I)cc1)Cc1ccc(I)cc1)Cc1ccc(I)cc1)Cc1ccc(I)cc1)Cc1ccc(I)cc1 [Compound 23] (H-[Nlys][NBzl(4-I)Gly][Nlys][NBzl(4-I)Gly][Nlys][NBzl(4-I)Gly][Nlys][NBzl(4-I)Gly][Nlys][NBzl(4-I)Gly]-NH2; N-terminus assumed)	0.5	0.4	0.5
NCCCCNCC(=O)N(CC(=O)N(CCCCN)CC(=O)N(CC(=O)N(CCCCN)CC(=O)N(CC(=O)N(CCCCN)CC(=O)N(CC(=O)N(CCCCN)CC(=O)N(CC(N)=O)Cc1ccc(F)cc1)Cc1ccccc1)Cc1ccc(F)cc1)Cc1ccccc1)Cc1ccc(F)cc1 [Compound 24] (H-[Nlys][N(4-F-Bzl)Gly][Nlys][Nphe][Nlys][N(4-F-Bzl)Gly][Nlys][Nphe][Nlys][N(4-F-Bzl)Gly]-NH2)	–	>5	–
NCCCCNCC(=O)N(CC(=O)N(CCCCN)CC(=O)N(CC(=O)N(CCCCN)CC(=O)N(CC(=O)N(CCCCN)CC(=O)N(CC(=O)N(CCCCN)CC(=O)N(CC(=O)N(CCCCN)CC(=O)N(CC(N)=O)Cc1ccc(I)cc1)Cc1ccc(I)cc1)Cc1ccc(I)cc1)Cc1ccc(I)cc1)Cc1ccc(I)cc1)Cc1ccc(I)cc1 [Compound 32] (H-[Nlys][NBzl(4-I)Gly][Nlys][NBzl(4-I)Gly][Nlys][NBzl(4-I)Gly][Nlys][NBzl(4-I)Gly][Nlys][NBzl(4-I)Gly][Nlys][NBzl(4-I)Gly]-NH2; N-terminus assumed)	0.4	–	0.4
NCCCCNCC(=O)N(CC(=O)N(CCCCN)CC(=O)N(CC(=O)N(CCCCN)CC(=O)N(CC(=O)N(CCCCN)CC(=O)N(CC(=O)N(CCCCN)CC(=O)N(CC(N)=O)Cc1ccc(Cl)cc1)Cc1ccccc1)Cc1ccc(Cl)cc1)Cc1ccccc1)Cc1ccc(Cl)cc1 [Compound 25] (H-[Nlys][Gly(Nα-4-Cl-benzyl)][Nlys][Nphe][Nlys][Gly(Nα-4-Cl-benzyl)][Nlys][Nphe][Nlys][Gly(Nα-4-Cl-benzyl)]-NH2)	–	>5	–
NCCCCNCC(=O)N(CC(=O)N(CCCCN)CC(=O)N(CC(=O)N(CCCCN)CC(=O)N(CC(=O)N(CCCCN)CC(=O)N(CC(=O)N(CCCCN)CC(=O)N(CC(N)=O)Cc1ccc(I)cc1)Cc1ccccc1)Cc1ccc(I)cc1)Cc1ccccc1)Cc1ccc(I)cc1 [Compound 27] (H-[Nlys][NBzl(4-I)Gly][Nlys][Nphe][Nlys][NBzl(4-I)Gly][Nlys][Nphe][Nlys][NBzl(4-I)Gly]-NH2)	–	>5	–
NCCCCNCC(=O)N(CC(=O)N(CCCCN)CC(=O)N(CC(=O)N(CCCCN)CC(=O)N(CC(=O)N(CCCCN)CC(=O)N(CC(=O)N(CCCCN)CC(=O)N(CC(N)=O)Cc1ccc(F)cc1)Cc1ccc(F)cc1)Cc1ccc(F)cc1)Cc1ccc(F)cc1)Cc1ccc(F)cc1 [Compound 20] (H-[Nlys][N(4-F-Bzl)Gly][Nlys][N(4-F-Bzl)Gly][Nlys][N(4-F-Bzl)Gly][Nlys][N(4-F-Bzl)Gly][Nlys][N(4-F-Bzl)Gly]-NH2; N-terminus assumed)	–	>5	–
NCCCCNCC(=O)N(CC(=O)N(CCCCN)CC(=O)N(CC(=O)N(CCCCN)CC(=O)N(CC(=O)N(CCCCN)CC(=O)N(CC(=O)N(CCCCN)CC(=O)N(CC(N)=O)Cc1ccc(Cl)cc1)Cc1ccc(Cl)cc1)Cc1ccc(Cl)cc1)Cc1ccc(Cl)cc1)Cc1ccc(Cl)cc1 [Compound 21] (H-[Nlys][Gly(Nα-4-Cl-benzyl)][Nlys][Gly(Nα-4-Cl-benzyl)][Nlys][Gly(Nα-4-Cl-benzyl)][Nlys][Gly(Nα-4-Cl-benzyl)][Nlys][Gly(Nα-4-Cl-benzyl)]-NH2; N-terminus assumed)	–	>5	–
